How the values were obtained:
[1] = test system: Human lung cancer cells, NCI-H226; experiment: Inhibition of cancer cell growth (sulforhodamine B assay); assay type: cell-based; settings: human lung cancer cells NCI-H226, 48 hr incubation, eight concentrations, SRB stain, absorbance 515 nm
Protocol: Human lung cancer cells, NCI-H226, were placed in 96-well microtiter plates (5,000 cells/100 μl/well). The plates were incubated at 37° C. under 5% CO2 and 95% air and 100% relative humidity for 24 hr. Cells in one plate were fixed in situ with trichloroacetic acid (TCA) to measure the cell population.
Compound 1 was dissolved in dimethylsulfoxide (DMSO) to give a solution at 400-fold the desired final maximum test concentration and stored frozen. An aliquot of the frozen DMSO solution was thawed and diluted to twice the desired final maximum test concentration. Additional ½ log serial dilutions were made to provide a total of eight concentrations. 100 μl aliquots of these different dilutions were added to the microtiter wells, resulting in the required final drug concentrations. After Compound 1 was added, the plates were incubated at 37° C. under 5% CO2 and 95% air and 100% relative humidity for an additional 48 hr. The cells were fixed in situ by slow addition of 50 μl of cold 50% (w/v) TCA and incubated at 4° C. for 60 minutes. The supernatant was removed, and the plates were gently washed twice with water and air-dried. […] The bound stain was subsequently solubilized with 10 mM trizma base, and absorbance was measured by an automated plate reader at the wavelength of 515 nm.

melting point	Compound	inhibition of growth of NCI-H226 [1]
	O=C(O)CCC(=O)OCc1ccc(-c2nn(Cc3ccccc3)c3ccccc23)o1 [Compound 1, succinic acid mono-[5-(1-benzyl-1H-indazol-3-yl)-furan-2-ylmethyl]ester]	effectively inhibited growth of NCI—H226
126.3 to 129 °C	Cc1cc2c(o1)c(-c1ccc(COC(=O)CCC(=O)O)o1)nn2Cc1ccccc1 [Compound 7, succinic acid mono-[5-(1-benzyl-5-methyl-1H-furo[3,2-C]pyrazol-3-yl)-furan-2-ylmethyl]ester]	
111 to 112.7 °C	O=C(O)CCC(=O)OCc1ccc(-c2nn(-c3ccc(Br)cc3)c3ccccc23)o1 [Compound 12, succinic acid mono-[5-(1-(4-bromo-phenyl)-1H-indazol-3-yl)-furan-2-ylmethyl]ester]	
